Assay: Pharmacokinetic assessment in healthy fed male volunteers after oral tablet administration, plasma quantified by MSPE-HPLC-UV
Settings: human, in vivo, 25 mg
Method: The chromatographic analysis was conducted using a Waters alliance e2695, (Massachusetts, USA) system which was equipped with a Waters 2487 dual wavelength detector and C18 TMS endcapping/reversed phase column (Luna 5 μm C18 100 A HPLC column 250 × 4.6 mm id, Phenomenex Co, Torrance, CA) at 40 °C. The mobile phase which being used in an isocratic mode was composed of potassium dihydrogen phosphate and sodium dodecyl sulfate (0.01 M, pH 6): acetonitrile (55 : 45, v/v) and passed through column with flow rate of 1 mL min^−1 (the mobile phase was filtered and degassed daily prior to use in HPLC). […] The column effluent was monitored at UV wavelength of 215 nm and the injection volume was 20.0 μL. The mobile phase was filtered by passing it through a 0.2 μm membrane filter (Millipore, Bedford, MA, USA).
Every frozen human plasma were firstly thawed at room temperature and placed into a sample glass tube. Preparation of plasma before MSPE method was based on protein precipitation with aid of acetonitrile. In this regard, the plasma (1.9 mL) was fortified with 100.0 μL of required concentrations of analytes followed by mixing with 2.0 mL ACN. The obtained solution was vortexed for 1 min and centrifuged for 5 min at 3500 rpm. Then, ACN content of the clear supernatant was evaporated under nitrogen stream and the remaining sample was transferred into 4.0 mL buffer solution at pH 4.0. Sample volume after evaporation under nitrogen stream was about 2 mL and total sample volume after transferring to 4 mL buffer solution was about 6 mL. 5.0 mL of the deproteinized samples containing target drugs were subjected to the extraction procedure for subsequent analysis.
Initially, 5.0 mL of the deproteinized human plasma (initial volume of spiked plasma sample 2.0 mL) was placed into a glass tube and 10.0 mg of magnetic Fe3O4@SiO2@PIL was added to the sample. The mixture was sonicated for 4 min to totally disperse the magnetic sorbent through the matrix and complete the extraction of target drugs at room temperature. Analyte-loaded sorbent was collected from the sample solution by exposing the glass tube to a powerful neodymium–iron–boron (Nd–Fe–B) magnet (5 × 5 × 4 cm, 0.8 tesla), and the upper phase was poured out. Later, the adsorbed analytes were eluted by 1.0 mL of acetonitrile (0.5 mL every time and washed two times) to desorb the analytes. Elution process was completed during 2 min in the ultrasonic bath. The magnet was used again to separate the sorbent and then the total volume of eluted solution was collected and evaporated to dryness under stream of the nitrogen. The dry residue was re-dissolved in 100.0 μL of mobile phase and stirred for 1 min. Finally, 20.0 μL of this solution was injected into the HPLC-UV system for analysis.
Eight healthy fed male volunteers within the age range of 28–42 years old were enrolled in these studies. […] The plasma samples were immediately transferred into a clean polypropylene tube and stored at −18 °C until being used. All assessments were approved by “The Committee For Research Ethics” of Department of Pharmacy and Pharmaceutical Sciences Research Center, Tehran University of Medical Sciences. In the next experiments, a single oral dose administration of Jardiance tablet (25 mg EMPA) was performed to four volunteers and the blood samples were collected and treated as the previous experiments. Each real sample was extracted at optimal conditions by the proposed procedure and the mean plasma concentration–time curve was obtained.

OC[C@H]1O[C@@H](c2ccc(Cl)c(Cc3ccc(O[C@H]4CCOC4)cc3)c2)[C@H](O)[C@@H](O)[C@@H]1O [EMPA, empagliflozin]
AUC(0-inf): 1430 ± 151 ng·h/mL | AUC(0-t): 1400 ± 122 ng·h/mL | Cmax: 216 ± 44.1 ng/mL | Tmax: 2.9 ± 0.3 h | half-life: 7.2 ± 1.1 h

Reference: PMC9085437, “Silica-coated magnetic iron oxide functionalized with hydrophobic polymeric ionic liquid: a promising nanoscale sorbent for simultaneous extraction of antidiabetic drugs from human plasma prior to their quantitation by HPLC” (RSC Advances, 2018)
